Results reported in patent US10610522B2, “Methods for retreating irritable bowel syndrome (IBS)” (Salix Pharmaceuticals, Inc., priority 2014, dated 2020).

System: non-constipation IBS
Assay: Combined first and second studies (TARGET 1 and 2): pooled efficacy, sustained response and recurrence
Format: in vivo, human
Design: Responders: abdominal pain reduction of 2 point in median / Responders: abdominal pain reduction of 3 point in median / Responders: abdominal pain reduction of 1 point in weekly median / Responders: abdominal pain reduction of 1 point in weekly mean / Responders: abdominal pain reduction of 2 point in mean: concentration or dose not given beside the values
Description: A measure of efficacy is based on subjects' answers to the Weekly Subject Global Assessment (SGA) questions over the study duration in relation to their IBS symptoms.
An evaluation of the enrolled subjects was carried out after the Primary Evaluation Period in the study described in Examples 5-7. […] Subjects with no recurrence are defined as having a stool consistency score of less than 4, abdominal pain reduced by at least 30 percent or both.

[1] = Combined, at least 2 weeks during PEP
[2] = Rolling 2-5 Weeks, Rifaximin (N = 624), n (%)
[3] = Rolling 3-6 Weeks, Rifaximin (N = 624), n (%)
[4] = Rolling 4-7 Weeks, Rifaximin (N = 624), n (%)
[5] = Rolling 4 Weeks: 4-7 Weeks, N = 624
[6] = Rolling 4 Weeks: 5-8 Weeks, N = 624
[7] = Rolling 4 Weeks: 6-9 Weeks, N = 624
[8] = Rolling 4 Weeks: 7-10 Weeks, N = 624

SMILES: CO[C@H]1/C=C/O[C@@]2(C)Oc3c(C)c(O)c4c(O)c(c5c(nc6cc(C)ccn65)c4c3C2=O)NC(=O)/C(C)=C\C=C\[C@H](C)[C@H](O)[C@@H](C)[C@@H](O)[C@@H](C)[C@H](OC(C)=O)[C@@H]1C [Rifaximin, (2S,16Z,18E,20S,21S,22R,23R,24R,25S,26S,27S,28E)-5,6,21,23,25 Pentahydroxy-27-methoxy-2,4,11,16,20,22,24,26-octamethyl-2,7-(epoxypentadeca-(1,11,13)trienimino) benzofuro (4,5-e) pyrido(1,2-a) benzimidazole-1,15(2H)-dione,25-acetate]
- IBS symptom of bloating: adequate relief at least 2 out of 4 weeks during weeks 3 through 6 (weekly question) (Combined): 40%
- Global IBS symptoms: adequate relief at least 2 out of 4 weeks during weeks 3 through 6 (weekly question) (Combined, 550 mg TID 14 d): 32% vs 41%
- Responders: abdominal pain reduction of 1 point in weekly mean [1]: 52%
- Responders: abdominal pain reduction of 1 point in weekly median [1]: 63%
- Responders: abdominal pain reduction of 2 point in mean [1]: 25%
- Responders: abdominal pain reduction of 2 point in median [1]: 39%
- Responders: abdominal pain reduction of 3 point in mean [1]: 6% vs 7%
- Responders: abdominal pain reduction of 3 point in median [1]: 21%
- Responders: daily abdominal pain < 2 for at least 50% of days in a week [1]: 39%
- Responders: overall reduction of mean weekly abdominal pain by >= 25% [1]: 57%
- Responders: overall reduction of mean weekly abdominal pain by >= 50% [1]: 35%
- Responders: overall reduction of mean weekly abdominal pain by >= 75% [1]: 14%
- Responders: overall reduction of median weekly abdominal pain by >= 25% [1]: 62%
- Responders: overall reduction of median weekly abdominal pain by >= 50% [1]: 44%
- Responders: overall reduction of median weekly abdominal pain by >= 75% [1]: 21%
- Sustained Durable Response (No Recurrence), Abdominal Pain & Stool Consistency: % of subjects (N = 624): (33.2%)
- Sustained Durable Response (No Recurrence), Abdominal Pain & Stool Consistency: number of subjects (N = 624): 207
- Sustained Durable Response (No Recurrence), Abdominal Pain: % of subjects (N = 624): (35.7%)
- Sustained Durable Response (No Recurrence), Abdominal Pain: number of subjects (N = 624): 223
- Sustained Durable Response (No Recurrence), Stool Consistency: % of subjects (N = 624): (68.9%)
- Sustained Durable Response (No Recurrence), Stool Consistency: number of subjects (N = 624): 430
- Abdominal Pain or Stool Consistency, Sustained Durable Response (Rifaximin (N = 624), n (%)): 180 (28.8%)
- Abdominal Pain or Stool Consistency, No Recurrence [2]: 286 (45.8%)
- Abdominal Pain or Stool Consistency, Recurrence [2]: 12 (1.9%)
- Abdominal Pain or Stool Consistency, No Recurrence [3]: 274 (43.9%)
- Abdominal Pain or Stool Consistency, Recurrence [3]: 23 (3.7%)
- Abdominal Pain or Stool Consistency, No Recurrence [4]: 251 (40.2%)
- Abdominal Pain or Stool Consistency, Recurrence [4]: 17 (2.7%)
- No Recurrence, Abdominal Pain & Stool Consistency: % of subjects [5]: (48.2%)
- No Recurrence, Abdominal Pain & Stool Consistency: number of subjects [5]: 301
- No Recurrence, Abdominal Pain: % of subjects [5]: (51.9%)
- No Recurrence, Abdominal Pain: number of subjects [5]: 324
- No Recurrence, Stool Consistency: % of subjects [5]: (78.8%)
- No Recurrence, Stool Consistency: number of subjects [5]: 492
- Recurrence, Abdominal Pain & Stool Consistency: % of subjects [5]: 3.7%
- Recurrence, Abdominal Pain & Stool Consistency: number of subjects [5]: 23
- Recurrence, Abdominal Pain: % of subjects [5]: 3.8%
- Recurrence, Abdominal Pain: number of subjects [5]: 24
- Recurrence, Stool Consistency: % of subjects [5]: 1.3%
- Recurrence, Stool Consistency: number of subjects [5]: 8
- No Recurrence, Abdominal Pain & Stool Consistency: % of subjects [6]: (44.6%)
- No Recurrence, Abdominal Pain & Stool Consistency: number of subjects [6]: 278
- No Recurrence, Abdominal Pain: % of subjects [6]: (48.1%)
- No Recurrence, Abdominal Pain: number of subjects [6]: 300
- No Recurrence, Stool Consistency: % of subjects [6]: (77.6%)
- No Recurrence, Stool Consistency: number of subjects [6]: 484
- Recurrence, Abdominal Pain & Stool Consistency: % of subjects [6]: 3.2%
- Recurrence, Abdominal Pain & Stool Consistency: number of subjects [6]: 20
- Recurrence, Abdominal Pain: % of subjects [6]: 3.0%
- Recurrence, Abdominal Pain: number of subjects [6]: 19
- Recurrence, Stool Consistency: % of subjects [6]: 2.1%
- Recurrence, Stool Consistency: number of subjects [6]: 13
- No Recurrence, Abdominal Pain & Stool Consistency: % of subjects [7]: (41.3%)
- No Recurrence, Abdominal Pain & Stool Consistency: number of subjects [7]: 258
- No Recurrence, Abdominal Pain: % of subjects [7]: (45.0%)
- No Recurrence, Abdominal Pain: number of subjects [7]: 281
- No Recurrence, Stool Consistency: % of subjects [7]: (75.5%)
- No Recurrence, Stool Consistency: number of subjects [7]: 471
- Recurrence, Abdominal Pain & Stool Consistency: % of subjects [7]: 2.2%
- Recurrence, Abdominal Pain & Stool Consistency: number of subjects [7]: 14
- Recurrence, Abdominal Pain: % of subjects [7]: 2.4%
- Recurrence, Abdominal Pain: number of subjects [7]: 15
- Recurrence, Stool Consistency: % of subjects [7]: 2.6%
- Recurrence, Stool Consistency: number of subjects [7]: 16
- No Recurrence, Abdominal Pain & Stool Consistency: % of subjects [8]: (39.1%)
- No Recurrence, Abdominal Pain & Stool Consistency: number of subjects [8]: 244
- No Recurrence, Abdominal Pain: % of subjects [8]: (42.6%)
- No Recurrence, Abdominal Pain: number of subjects [8]: 266
- No Recurrence, Stool Consistency: % of subjects [8]: (72.9%)
- No Recurrence, Stool Consistency: number of subjects [8]: 455
